Earlier results in US5541094A, “Glyoxylic acid/aminomethylphosphonic acid mixtures prepared using a microbial transformant” (E. I. du Pont de Nemours and Company, priority 1994, dated 1996).

System: glycolate oxidase
Settings: 100 mM; enzyme extracted from tobacco leaves

Structure (SMILES): O=C(O)C(=O)O [Oxalic acid]
- inhibition of the catalytic action of the glycolate oxidase: inhibit the catalytic action of the glycolate oxidase
